In experiment [1] the test system is hairs of C57/B16 mouse. Nature of the experiment: Tests on the C57/B16 mouse: hair growth after topical application. The class given is in vivo. As to conditions: section on the C57/B16 mouse; 1% solution in the same excipient as the Arnica montana extract. On the procedure:
Female mice aged 5 weeks, all identical, are used. The mice are […] on the back, so as to render the hairs unnoticeable.
0.2 ml of one of each product in the same solvent as for the test on the rabbits and at the same concentration is deposited on the backs of the mice.
A test is thus carried out by comparison between different mice, in contrast to the test on the rabbit, where the same animal represents its own control.
The product is deposited on the back, without using gauze, once daily for 5 days in a row. […] They become visible on the second day of treatment to reach approximately 1 mm from the third day, whereas the hairs begin to grow on the control mice only from the third week after the beginning of the treatment.
(§1) A solution comprising 1% of pure commercial parthenolide (Aldrich, ref. 38,428-3) and a solution comprising 1% of pure commercial cnicin (Extrasynthese, ref. 8725) are prepared in the same excipient as the Arnica montana extract and are subjected to the test on the rabbit.

The test system of experiment [2] is hairs in the telogenic phase. Nature of the experiment: Test on the rabbit: hair growth after topical application. It is filed as in vivo. As to conditions: 1% solution in the same excipient as the Arnica montana extract. On the procedure: Male rabbits aged at least 12 weeks and identical in age, in order for the hairs of these animals to be in the telogenic phase, which can be confirmed by shearing the animals, are used.
The test products are dissolved in pure ethanol in the proportion of a concentration of 25% (w/v). This solution is then diluted 1/10 with sweet almond oil. A concentration of active product of 2.5% is then obtained.
0.2 ml of these solutions are deposited on a gauze applied to the skin and a control, obtained by preparing the same solvent as that which was used to dissolve the active principles, is also deposited. The products and the control are left in contact with the skin for 15 minutes and then the gauze is removed. The treatment is carried out for 2 days at the rate of three applications per day at intervals of four hours.
The difference between the mean time taken by the hairs to grow on the treated parts and the control parts is subsequently evaluated.
as §1

The values below come from patent US20040115289A1, “Cosmetic or medicinal composition containing sesquiterpene lactone or the like for treating hair -growth related disorders, and preparation method” (priority 2000, published 2004).

With `C=C1C(=O)O[C@@H]2/C=C(\CO)CC/C=C(\C)C[C@H](OC(=O)C(=C)[C@@H](O)CO)[C@@H]12` [cnicin], the “growth of the hairs compared with the 2.5% Arnica extract” value in experiment [1] is “approximately two times worse”. Besides, in experiment [2], the “growth of the hairs compared with the Arnica extract” value is reported as “approximately two times worse”.
